This note sets out measurements from ChEMBL document CHEMBL3217689, “Synthesis and antiplasmodial evaluation of aziridine(iso)quinoline hybrids and their ring-opening products” (Medchemcomm, 2013).

Usually IC50 stands for the point on the concentration scale where inhibition reaches its midpoint.

Series [1] relates to Plasmodium falciparum. The series is described as follows: Antiplasmodial activity against chloroquine-resistant Plasmodium falciparum Dd2 by LDH assay. Format: functional, organism-based.
The nature of series [2]: Resistance index, ratio of IC50 for chloroquine-resistant Plasmodium falciparum Dd2 to IC50 for chloroquine-sensitive Plasmodium falciparum NF54.
In the next series the test system is CHO. The series is described as follows: Cytotoxicity against CHO cells by MTT assay. Format: cell-based. The conditions noted are these: Cricetulus griseus.
For series [3], the system named is Plasmodium falciparum. Briefly: Antiplasmodial activity against chloroquine-sensitive Plasmodium falciparum NF54 by LDH assay. Format: functional, organism-based.
Series [4] is described as follows: Selectivity index, ratio of IC50 for CHO cells to IC50 for chloroquine-sensitive Plasmodium falciparum NF54. As to conditions: hamster; read-out: Ratio IC50. Format: toxicity, cell-based.

Each structure is given as a SMILES string.

`c1ccc(CNC(CNc2ccccc2)COc2cccc3cnccc23)cc1` (configuration not stated): the values for the IC50 in the series with Plasmodium falciparum [1], in the series with CHO and with Plasmodium falciparum [3] were 8.21 µM, 237 µM and 4.69 µM, respectively. Besides, the “Ratio IC50” value in series [2] was found to be 1.75. The selectivity ratio in series [4] was determined as 50.5. Molecule `O=c1c(Cl)c(Cl)cnn1CC(CO)NCc1cc2ccccc2nc1Cl` (configuration not stated) came in with an IC50 in the series on Plasmodium falciparum [3] of 15 µM. For `COCC(COc1cc(C(F)(F)F)nn1C)NCc1cc2ccccc2nc1Cl` (configuration not stated), 17 µM corresponded to half-maximal inhibition in the series on Plasmodium falciparum [3] (IC50). The same measure, in the same setting: the result for `O=c1c(Cl)c(Cl)cnn1CC(CO)NCc1ccnc2ccccc12` (configuration not stated) reads 24.5 µM. On the same count and under the same terms, next, `Clc1ccc(CN2CC2COc2cccc3cnccc23)cc1` (configuration not stated): > 30.8 µM; `O=c1nc(C(F)(F)F)ccn1CC1CN1Cc1cnc2ccccc2c1` (configuration not stated): > 27.8 µM; `c1ccc(CN2CC2COc2cccc3cnccc23)cc1` (configuration not stated): 9.99 µM. `COCC(Cn1ncc(Cl)c(Cl)c1=O)NCc1ccnc2ccccc12` (configuration not stated): it took 14.5 µM to reach half-maximal inhibition in the series with Plasmodium falciparum [3] (IC50). As for `Cn1nc(C(F)(F)F)cc1OCC(CO)NCc1cc2ccccc2nc1Cl` (configuration not stated), the IC50 with Plasmodium falciparum [3] is > 24.1 µM. On the same count and under the same terms, next, `Cn1nc(C(F)(F)F)cc1OCC1CN1Cc1ccnc2ccccc12` (configuration not stated): 9.66 µM; `OCC(COc1cccc2cnccc12)NCc1ccc(Cl)cc1` (configuration not stated): 22.8 µM. On the same count and under the same terms, next, `O=c1c(Cl)c(Cl)cnn1CC1CN1Cc1ccnc2ccccc12` (configuration not stated): 26.9 µM; `Fc1ccc(CN2CC2COc2cccc3cnccc23)cc1` (configuration not stated): 15.9 µM. The same measure, in the same setting: next, `O=c1c(Cl)c(Cl)cnn1CC1CN1Cc1cnc2ccccc2c1` (configuration not stated): 12.7 µM; `COCC(COc1cccc2cnccc12)NCc1ccccc1` (configuration not stated): 13 µM; `COCC(COc1cc(C(F)(F)F)nn1C)NCc1cc2ccccc2nc1OC` (configuration not stated): > 23.6 µM.

`O=c1c(Cl)c(Cl)cnn1CC1CN1Cc1cc2ccccc2nc1Cl` (configuration not stated) came in with an IC50 with Plasmodium falciparum [3] of 22.8 µM.

For the molecule `OCC(COc1cccc2cnccc12)NCc1ccc(C(F)(F)F)cc1` (configuration not stated), in the series with Plasmodium falciparum [3], the half-maximal inhibitory concentration (IC50) was determined as 11.7 µM.

The molecule `CC[C@H]1CN2CCc3cc(OC)c(OC)cc3[C@@H]2C[C@@H]1C[C@H]1NCCc2cc(OC)c(OC)cc21` [EMETINE] registered an IC50 with CHO of 0.4 µM. For the molecule `COCC(COc1cccc2cnccc12)NCc1ccccc1OC` (configuration not stated), in the series on Plasmodium falciparum [3], the IC50 is > 28.4 µM.

Turning to `COCC(COc1cccc2cnccc12)NCc1ccc(OC)cc1` (configuration not stated), the IC50 in the series on Plasmodium falciparum [3] is > 28.4 µM. Consider `O=c1nc(C(F)(F)F)ccn1CC1CN1Cc1cc2ccccc2nc1Cl` (configuration not stated), for which half-maximal inhibition in the series with Plasmodium falciparum [3] (IC50) required 9.12 µM. With `BrC(COc1cccc2c[n+](Cc3ccccc3)ccc12)CN(Cc1ccccc1)Cc1ccccc1.[Br-]` (configuration not stated), the IC50 is 1.17 µM in the series on Plasmodium falciparum [1], 45.1 µM in the series on CHO and 0.22 µM in the series with Plasmodium falciparum [3]. Besides, the “Ratio IC50” value in series [2] came out at 5.32. The selectivity ratio in series [4] amounted to 205. Take `OCC(COc1cccc2cnccc12)NCc1ccc(Cl)cc1Cl` (configuration not stated): the IC50 in the series on Plasmodium falciparum [3] was > 26.5 µM. On the same count and under the same terms, the result for `COCC(COc1cccc2cnccc12)NCc1ccccc1Cl` (configuration not stated) reads 16.5 µM; that for `Clc1ccc(CNC(CNc2ccccc2)COc2cccc3cnccc23)cc1` (configuration not stated), 10.5 µM. Still for that read-out and setting: next, `COCC(COc1cccc2cnccc12)NCc1ccc(F)cc1` (configuration not stated): 24.4 µM; `C[C@H]1[C@H](OC(=O)CCC(=O)O)O[C@@H]2O[C@@]3(C)CC[C@H]4[C@H](C)CC[C@@H]1[C@@]24OO3` [ARTESUNATE]: 0.02 µM. On to `Cn1nc(C(F)(F)F)cc1OCC(CO)NCc1cnc2ccccc2c1` (configuration not stated), for which the IC50 amounted to 15.2 µM in the series on Plasmodium falciparum [1], 181 µM in the series with CHO and 4.73 µM with Plasmodium falciparum [3]. Also, the selectivity ratio in series [4] came out at 38.3. Regarding `Clc1ccc(CN2CC2COc2cccc3cnccc23)c(Cl)c1` (configuration not stated), the IC50 with Plasmodium falciparum [3] is > 27.8 µM. Turning to `COc1ccccc1CN1CC1COc1cccc2cnccc12` (configuration not stated), the results for the IC50 with Plasmodium falciparum [1], in the series on CHO and with Plasmodium falciparum [3] were 8.46 µM, 52.3 µM and 5.29 µM, respectively. Moreover, in series [2], the “Ratio IC50” value stood at 1.6. Further, the selectivity ratio in series [4] is 9.88. In the series on Plasmodium falciparum [3], `Clc1ccccc1CN1CC1COc1cccc2cnccc12` (configuration not stated) yielded an IC50 of 12.9 µM. Same read-out and setting: next, `COc1ccc(CN2CC2COc2cccc3cnccc23)cc1` (configuration not stated): 9.99 µM; `Cn1nc(C(F)(F)F)cc1OCC1CN1Cc1cc2ccccc2nc1Cl` (configuration not stated): > 25.2 µM. As to `OCC(COc1cccc2cnccc12)NCc1ccccc1` (configuration not stated), the IC50 amounted to 17.6 µM with Plasmodium falciparum [1], 148 µM with CHO and 6.81 µM in the series with Plasmodium falciparum [3]. Moreover, in series [2], the “Ratio IC50” value was determined as 2.58. Besides, the selectivity ratio in series [4] is 21.8. In the case of `FC(F)(F)c1ccc(CN2CC2COc2cccc3cnccc23)cc1` (configuration not stated), the IC50 in the series on Plasmodium falciparum [3] is > 27.9 µM. Take `[Br-].c1ccc(CN2CC2COc2cccc3c[n+](Cc4ccccc4)ccc23)cc1` (configuration not stated): the IC50 is 1.02 µM in the series with Plasmodium falciparum [1], 51.8 µM with CHO and 1.09 µM in the series on Plasmodium falciparum [3]. For the same molecule, in series [2], the “Ratio IC50” value turned out to be 0.94. In addition, the selectivity ratio in series [4] turned out to be 47.7. On to `O=c1c(Cl)c(Cl)cnn1CC(CO)NCc1cnc2ccccc2c1` (configuration not stated), for which, in the series on Plasmodium falciparum [3], the IC50 is 15.3 µM. Same read-out and setting: next, `Cn1nc(C(F)(F)F)cc1OCC1CN1Cc1cnc2ccccc2c1` (configuration not stated): > 27.6 µM.
